From patent US10457642B2, “211-astatine containing radiotherapeutics for the treatment of cancer” (The Trustees of The University of Pennsylvania, priority 2015, dated 2019)
Values joined by “and” are separate entries in the source; they are usually repeats but may differ in a detail not shown here. Identical values can stand only once. Like-named read-outs stand apart in the source and are kept apart here.

Assays:
sigma-2 receptor = molecular target: T1, sigma-2 receptor (Homo sapiens, UniProt Q5BJF2); assay: In vitro live cellular binding studies in MDA-MB-231 breast cancer cells; conditions: MDA-MB-231 cells
T1 construct: was evaluated in MDA-MB-231 breast cancer cells (ATCC-HTB-26) known to have high sigma-2 receptor density; host or cells: MDA-MB-231 (living, plated cells)
Method: MDA-MB-231 were cultured in Minimum Essential Media (MEM) with added nutrients, 10% fetal bovine serum (FBS) and 1% penicillin/streptomycin at 5% CO2 and 37° C. Twenty-four hours before assay cells were plated at 50,000 cell/well in 96-well format. Two solutions of freshly synthesized radioligand were diluted to a concentration of approximately 2,000 cpm/μL in phosphate buffered saline with calcium and magnesium (PBS w/ Ca^2+ and Mg^2+), with and without non-radioactive 100 μM of the standard to determine non-specific binding. […] Total volume of treatment in each well was 50 μL. PBS w/ Ca^2+ and Mg^2+ without substrate was added to the last row of wells and was used for protein quantification at the end of the experiment. Treatment was removed at time points over the course of 2 h (n=4/time point). At each time of treatment removal, wells were washed with PBS×3. At the end of the experiment wells were counted on an automatic gamma counter using a custom protocol with an energy window of 70-110 KeV (Wizard™ 2470, Perkin Elmer, Waltham Mass.). Protein quantification was performed using a modified Lowry method. Independent experiments were repeated in triplicate. One-phase association kinetics were modeled using Prism™ software version 6.0 (La Holla, Calif.).

[1] = Method: Tumors were grown by subcutaneously injecting 1×10^6 EMT-6 mouse breast cancer cells (ATCC #CRL-2755) into the flanks of female BALB/c mice (Taconic). Tumors were an appropriate size of approximately 200 mm^3 after 14 days of growth. On the day of experiment 10 μCi of newly synthesized ^211At—N-(6,7-dimethoxy-3,4-dihydroisoquinolin-2(1H)-yl)butyl)-2,3-dimethoxybenzamide in saline (ethanol<5%) was administered intravenously to mice under isoflurane anesthesia. Mice were sacrificed by cervical dislocation followed by immediate cardiac puncture post administration at time points of 5 min, 1, 2, 4, 8, and 24 h (n=4 mice/time point). Tissue harvested included; blood, heart, muscle, lung, kidney, pancreas, spleen, liver, skin, brain, thyroid, stomach and EMT-6 tumor. Tissues were weighed and counted on an automatic gamma counter as previously described. All animal experiments were conducted under IACUC-approved protocols compliant with University of Pennsylvania guidelines for the care and use of research animals.
[2] = in vivo; cited from earlier work

T1 sequence (Q5BJF2 whole entry): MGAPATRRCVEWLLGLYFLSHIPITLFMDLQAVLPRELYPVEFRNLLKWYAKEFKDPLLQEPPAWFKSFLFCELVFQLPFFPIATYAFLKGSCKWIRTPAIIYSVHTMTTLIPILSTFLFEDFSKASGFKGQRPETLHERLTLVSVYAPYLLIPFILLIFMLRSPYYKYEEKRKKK

COc1cc2c(cc1OC)CN(CCCCNC(=O)c1cc([211At])cc(OC)c1OC)CC2 [^211At—N-(6,7-dimethoxy-3,4-dihydroisoquinolin-2(1H)-yl)butyl)-2,3-dimethoxybenzamide]
reduction in total binding through the addition of the standard (sigma-2 receptor; +100 μM non-radioactive standard): 80%
time of 50% maximal binding (T1/2) (sigma-2 receptor; one-phase association): 12.51 min
Decay corrected biodistribution, Blood ([1]; 5 min after i.v.): 4.06 ± 0.19 % ID/g
Decay corrected biodistribution, Blood ([1]; 1 h after i.v.): 2.12 ± 0.15 % ID/g
Decay corrected biodistribution, Blood ([1]; 2 h after i.v.): 2.43 ± 0.82 % ID/g
Decay corrected biodistribution, Blood ([1]; 4 h after i.v.): 1.64 ± 0.11 % ID/g
Decay corrected biodistribution, Blood ([1]; 8 h after i.v.): 1.82 ± 0.10 % ID/g
Decay corrected biodistribution, Blood ([1]; 24 h after i.v.): 0.44 ± 0.10 % ID/g
Decay corrected biodistribution, Brain ([1]; 5 min after i.v.): 1.95 ± 0.14 % ID/g
Decay corrected biodistribution, Brain ([1]; 1 h after i.v.): 0.46 ± 0.08 % ID/g
Decay corrected biodistribution, Brain ([1]; 2 h after i.v.): 0.39 ± 0.01 % ID/g
Decay corrected biodistribution, Brain ([1]; 4 h after i.v.): 0.21 ± 0.02 % ID/g
Decay corrected biodistribution, Brain ([1]; 8 h after i.v.): 0.25 ± 0.02 % ID/g
Decay corrected biodistribution, Brain ([1]; 24 h after i.v.): 0.07 ± 0.02 % ID/g
retention of radioactivity in the tumor, time post administration ([1]; EMT-6 tumor): 1 to 8 h
Decay corrected biodistribution, Tumor ([1]; EMT-6 tumor, 5 min after i.v.): 0.74 ± 0.07 % ID/g
Decay corrected biodistribution, Tumor ([1]; EMT-6 tumor, 1 h after i.v.): 4.40 ± 0.15 % ID/g
Decay corrected biodistribution, Tumor ([1]; EMT-6 tumor, 2 h after i.v.): 4.93 ± 0.78 % ID/g
Decay corrected biodistribution, Tumor ([1]; EMT-6 tumor, 4 h after i.v.): 5.05 ± 0.68 % ID/g
Decay corrected biodistribution, Tumor ([1]; EMT-6 tumor, 8 h after i.v.): 5.11 ± 0.09 % ID/g
Decay corrected biodistribution, Tumor ([1]; EMT-6 tumor, 24 h after i.v.): 1.34 ± 0.37 % ID/g
Tumor accumulation ([1]; EMT-6 tumor, from 1 h to at least 8 h): above 4 % ID/g
Decay corrected biodistribution, Heart ([1]; 5 min after i.v.): 10.2 ± 0.82 % ID/g
Decay corrected biodistribution, Heart ([1]; 1 h after i.v.): 5.16 ± 1.21 % ID/g
Decay corrected biodistribution, Heart ([1]; 2 h after i.v.): 4.70 ± 0.31 % ID/g
Decay corrected biodistribution, Heart ([1]; 4 h after i.v.): 3.54 ± 0.17 % ID/g
Decay corrected biodistribution, Heart ([1]; 8 h after i.v.): 4.01 ± 0.29 % ID/g
Decay corrected biodistribution, Heart ([1]; 24 h after i.v.): 1.14 ± 0.27 % ID/g
Decay corrected biodistribution, Kidney ([1]; 5 min after i.v.): 47.7 % ID/g and 47.7 ± 2.32 % ID/g
Decay corrected biodistribution, Kidney ([1]; 1 h after i.v.): 5.83 % ID/g and 5.83 ± 0.53 % ID/g
Decay corrected biodistribution, Kidney ([1]; 2 h after i.v.): 5.59 ± 0.35 % ID/g
Decay corrected biodistribution, Kidney ([1]; 4 h after i.v.): 2.97 ± 0.13 % ID/g
Decay corrected biodistribution, Kidney ([1]; 8 h after i.v.): 3.24 ± 0.21 % ID/g
Decay corrected biodistribution, Kidney ([1]; 24 h after i.v.): 1.05 ± 0.23 % ID/g
Decay corrected biodistribution, Liver ([1]; 5 min after i.v.): 18.1 ± 2.11 % ID/g
Decay corrected biodistribution, Liver ([1]; 1 h after i.v.): 6.39 ± 3.27 % ID/g
Decay corrected biodistribution, Liver ([1]; 2 h after i.v.): 4.63 ± 1.01 % ID/g
Decay corrected biodistribution, Liver ([1]; 4 h after i.v.): 1.87 ± 0.17 % ID/g
Decay corrected biodistribution, Liver ([1]; 8 h after i.v.): 1.86 ± 0.19 % ID/g
Decay corrected biodistribution, Liver ([1]; 24 h after i.v.): 0.59 ± 0.20 % ID/g
Decay corrected biodistribution, Lung ([1]; 5 min after i.v.): 20.2 ± 1.39 % ID/g
Decay corrected biodistribution, Lung ([1]; 1 h after i.v.): 7.14 ± 1.03 % ID/g
Decay corrected biodistribution, Lung ([1]; 2 h after i.v.): 6.42 ± 0.39 % ID/g
Decay corrected biodistribution, Lung ([1]; 4 h after i.v.): 5.74 ± 0.53 % ID/g
Decay corrected biodistribution, Lung ([1]; 8 h after i.v.): 6.23 ± 0.57 % ID/g
Decay corrected biodistribution, Lung ([1]; 24 h after i.v.): 2.21 ± 0.40 % ID/g
Decay corrected biodistribution, Muscle ([1]; 5 min after i.v.): 0.69 ± 0.16 % ID/g
Decay corrected biodistribution, Muscle ([1]; 1 h after i.v.): 1.24 ± 0.18 % ID/g
Decay corrected biodistribution, Muscle ([1]; 2 h after i.v.): 1.15 ± 0.07 % ID/g
Decay corrected biodistribution, Muscle ([1]; 4 h after i.v.): 0.56 ± 0.03 % ID/g
Decay corrected biodistribution, Muscle ([1]; 8 h after i.v.): 0.61 ± 0.04 % ID/g
Decay corrected biodistribution, Muscle ([1]; 24 h after i.v.): 0.19 ± 0.01 % ID/g
Decay corrected biodistribution, Pancreas ([1]; 5 min after i.v.): 8.81 ± 1.21 % ID/g
Decay corrected biodistribution, Pancreas ([1]; 1 h after i.v.): 18.1 ± 1.60 % ID/g
Decay corrected biodistribution, Pancreas ([1]; 2 h after i.v.): 18.0 ± 1.65 % ID/g
Decay corrected biodistribution, Pancreas ([1]; 4 h after i.v.): 26.3 ± 2.11 % ID/g
Decay corrected biodistribution, Pancreas ([1]; 8 h after i.v.): 21.1 ± 2.35 % ID/g
Decay corrected biodistribution, Pancreas ([1]; 24 h after i.v.): 5.78 ± 0.89 % ID/g
Decay corrected biodistribution, Skin ([1]; 5 min after i.v.): 0.58 ± 0.05 % ID/g
Decay corrected biodistribution, Skin ([1]; 1 h after i.v.): 2.30 ± 0.23 % ID/g
Decay corrected biodistribution, Skin ([1]; 2 h after i.v.): 2.66 ± 0.30 % ID/g
Decay corrected biodistribution, Skin ([1]; 4 h after i.v.): 1.79 ± 0.15 % ID/g
Decay corrected biodistribution, Skin ([1]; 8 h after i.v.): 2.10 ± 0.42 % ID/g
Decay corrected biodistribution, Skin ([1]; 24 h after i.v.): 0.85 ± 0.08 % ID/g
Decay corrected biodistribution, Spleen ([1]; 5 min after i.v.): 8.41 ± 2.67 % ID/g
Decay corrected biodistribution, Spleen ([1]; 1 h after i.v.): 13.2 ± 2.76 % ID/g
Decay corrected biodistribution, Spleen ([1]; 2 h after i.v.): 12.0 ± 1.47 % ID/g
Decay corrected biodistribution, Spleen ([1]; 4 h after i.v.): 7.59 ± 0.49 % ID/g
Decay corrected biodistribution, Spleen ([1]; 8 h after i.v.): 7.49 ± 1.38 % ID/g
Decay corrected biodistribution, Spleen ([1]; 24 h after i.v.): 2.14 ± 1.02 % ID/g
Decay corrected biodistribution, Stomach ([1]; 5 min after i.v.): 5.87 ± 1.12 % ID/g
Decay corrected biodistribution, Stomach ([1]; 1 h after i.v.): 15.9 ± 2.53 % ID/g
Decay corrected biodistribution, Stomach ([1]; 2 h after i.v.): 16.3 ± 2.29 % ID/g
Decay corrected biodistribution, Stomach ([1]; 4 h after i.v.): 19.7 ± 1.79 % ID/g
Decay corrected biodistribution, Stomach ([1]; 8 h after i.v.): 28.2 ± 7.21 % ID/g
Decay corrected biodistribution, Stomach ([1]; 24 h after i.v.): 9.88 ± 1.62 % ID/g
Decay corrected biodistribution, Thyroid ([1]; 5 min after i.v.): 5.87 ± 0.85 % ID/g
Decay corrected biodistribution, Thyroid ([1]; 1 h after i.v.): 11.6 ± 1.01 % ID/g
Decay corrected biodistribution, Thyroid ([1]; 2 h after i.v.): 18.3 ± 6.12 % ID/g
Decay corrected biodistribution, Thyroid ([1]; 4 h after i.v.): 14.0 ± 4.26 % ID/g
Decay corrected biodistribution, Thyroid ([1]; 8 h after i.v.): 13.3 ± 2.96 % ID/g
Decay corrected biodistribution, Thyroid ([1]; 24 h after i.v.): 4.87 ± 1.15 % ID/g
maximal tumor to muscle ratio ([1]; at 4 h): 9.02

COc1cc2c(cc1OC)CN(CCCCNC(=O)c1cc(I)cc(OC)c1OC)CC2 [iodinated sigma-2 ligand standard, 5-iodo-N-(4-(6,7-dimethoxy-3,4-dihydroisoquinolin-2(1H)-yl)butyl)-2,3-dimethoxybenzamide]
tumor uptake [2]: 2 % ID/g
